# Reference: the supplement of paper PMC11424490
# Assays:
# NCI-H358 [1] = assay: fitted bottom plateau of viability curve, % of DMSO control; higher = less maximal inhibition; extreme values may be limits of the assay
# In short: (§1)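 Compounds were dispensed acoustically as dose series, one compound per well, 24 h after seeding cells in 60 µl per well of 384-well plates (800 cells/well for NCI-H2122, 500 cells/well for SW837 and NCI-H358). Plates were incubated 144 h for SW837 and 72 h for the other two lines, then shaken 15 min and read for CellTiter-Glo luminescence on an EnVision reader. Signals were converted to percent of DMSO controls. The relative IC50, averaged over replicates, and the lower plateau come from fitting a four-parameter nonlinear model.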
# NCI-H2122 [2] = assay: as above
# In short: as §1
# SW837 [3] = assay: as above
# In short: as §1
# NCI-H358 [4] = assay: relative IC50 of cell viability (CellTiter-Glo); higher = less potent
# In short: as §1
# NCI-H2122 [5] = assay: as above
# In short: as §1
# SW837 [6] = assay: as above
# In short: as §1
SMILES,fitted bottom plateau of viability curve (NCI-H358 [1]) [%],fitted bottom plateau of viability curve (NCI-H2122 [2]) [%],fitted bottom plateau of viability curve (SW837 [3]) [%],relative IC50 of cell viability (NCI-H358 [4]) [µM],relative IC50 of cell viability (NCI-H2122 [5]) [µM],relative IC50 of cell viability (SW837 [6]) [µM]
CCc1nc(N)nc(N)c1-c1ccc(Cl)cc1 [Pyrimethamine] (top concentration tested 50000 nM),45.5,28.9,39,8.34,3.43,8.07
CCc1c2c(nc3ccc(O)cc13)-c1cc3c(c(=O)n1C2)COC(=O)[C@]3(O)CC [SN-38] (top concentration tested 99.894 nM),7.46,30.2,2.39,0.00648,0.00615,0.0104
